# Target: T1, SMYD2 (Homo sapiens, UniProt Q9NRG4)
# T1 construct: Full length SMYD2 (NP 064582.2) was cloned; His6 (N, cleaved yes); FLAG (N); made in house; host or cells: Sf9 insect cells
# Assay: SMYD2 Biochemical Assay (3H-SAM, biotinylated peptide substrate, Flashplate)
# Conditions: IC50 values are an average of n = 1 to n = 50; read-out: SMYD2 Biochem IC50 (μM)*
# How it was run: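 Full-length His/FLAG-tagged SMYD2 expressed in Sf9 cells with tag cleaved, 1.5 nM, pre-incubated 30 min at room temperature with compound, then 10 nM 3H-SAM and 60 nM biotinylated peptide added. Buffer 20 mM Bicine pH 7.6, 1 mM TCEP, 0.005% BSG, 0.002% Tween20, 2% DMSO. Stopped with 600 uM cold SAM; 3H-peptide captured on streptavidin Flashplate; IC50 by curve fit.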
# T1 sequence (Q9NRG4 whole entry): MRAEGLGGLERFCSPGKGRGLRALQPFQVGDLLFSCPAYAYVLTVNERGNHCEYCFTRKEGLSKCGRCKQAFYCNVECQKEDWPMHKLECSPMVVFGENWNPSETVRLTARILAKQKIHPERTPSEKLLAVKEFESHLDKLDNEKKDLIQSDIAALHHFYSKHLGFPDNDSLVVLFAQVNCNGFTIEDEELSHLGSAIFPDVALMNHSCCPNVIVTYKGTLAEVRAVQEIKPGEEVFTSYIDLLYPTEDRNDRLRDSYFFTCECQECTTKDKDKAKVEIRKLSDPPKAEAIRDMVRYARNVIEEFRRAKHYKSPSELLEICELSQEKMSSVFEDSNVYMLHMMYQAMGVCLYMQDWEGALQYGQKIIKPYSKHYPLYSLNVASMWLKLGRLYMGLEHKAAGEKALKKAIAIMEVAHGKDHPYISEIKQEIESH
row,IC50 [µM],Compound
1,6.3,"C[C@H]1CN(Cc2ccc3c(c2)OCCO3)C[C@H]1NC(=O)c1cc(C2CC2)on1 (racemic) [compound 274, (±)-cis-5-cyclopropyl-N-[1-(2,3-dihydro-1,4-benzodioxin-6-ylmethyl)-4-methylpyrrolidin-3-yl]-1,2-oxazole-3-carboxamide]"
2,> 50,"C[C@@H]1CN(Cc2cccnc2)C[C@H]1NC(=O)c1cc(C2CC2)on1 (racemic) [compound 124, (±)-trans-5-cyclopropyl-N-[4-methyl-1-(pyridin-3-ylmethyl)pyrrolidin-3-yl]-1,2-oxazole-3-carboxamide]"
3,> 50,"C[C@H]1CN(Cc2ccnc3ccccc23)C[C@H]1NC(=O)c1cc(C2CC2)on1 (racemic) [compound 197, (±)-cis-5-cyclopropyl-N-[4-methyl-1-(quinolin-4-ylmethyl)pyrrolidin-3-yl]-1,2-oxazole-3-carboxamide]"
4,> 50,"C[C@@H]1CN(Cc2cc3ccccc3s2)C[C@H]1NC(=O)c1cc(C2CC2)on1 (racemic) [compound 152, (±)-trans-N-[1-(1-benzothiophen-2-ylmethyl)-4-methyl-pyrrolidin-3-yl]-5-cyclopropyl-1,2-oxazole-3-carboxamide]"
5,6.92,"C[C@H]1CN(CCC2CCN(C(=O)OC(C)(C)C)CC2)C[C@H]1NC(=O)c1cc(C2CC2)on1 (racemic) [compound 169, (±)-cis-tert-butyl 4-{2-[3-(5-cyclopropyl-1,2-oxazole-3-amido)-4-methylpyrrolidin-1-yl]ethyl}piperidine-1-carboxylate]"
6,> 50,"CC(C)N1C[C@@H](C)[C@H](NC(=O)c2cc(C3(C)CCC3)on2)C1 (racemic) [compound 259, (±)-trans-N-[4-methyl-1-(propan-2-yl)pyrrolidin-3-yl]-5-(1-methylcyclobutyl)-1,2-oxazole-3-carboxamide]"
7,44.9,"CCC[C@H]1CN(C)C[C@@H]1NC(=O)c1cc(C2CC2)on1 (racemic) [compound 150, (±)-trans-5-cyclopropyl-N-[1-methyl-4-propylpyrrolidin-3-yl]-1,2-oxazole-3-carboxamide]"
8,> 50,"C[C@@H]1CN(c2ccccc2)C[C@H]1NC(=O)c1cc(C2CC2)on1 (racemic) [compound 296, (±)-trans-5-cyclopropyl-N-(4-methyl-1-phenyl-pyrrolidin-3-yl)-1,2-oxazole-3-carboxamide]"
9,26.7,"C[C@H]1CN(Cc2cc([N+](=O)[O-])ccc2F)C[C@H]1NC(=O)c1cc(C2CC2)on1 (racemic) [compound 282, (±)-cis-5-cyclopropyl-N-{1-[(2-fluoro-5-nitrophenyl)methyl]-4-methylpyrrolidin-3-yl}-1,2-oxazole-3-carboxamide]"
10,> 50,"C[C@@H]1CN(c2ccncn2)C[C@H]1NC(=O)c1cc(C2CC2)on1 (racemic) [compound 316, (±)-trans-5-cyclopropyl-N-[4-methyl-1-(pyrimidin-4-yl)pyrrolidin-3-yl]-1,2-oxazole-3-carboxamide]"
11,> 50,"CNC(=O)CN1C[C@H](C)[C@H](NC(=O)c2cc(C3CC3)on2)C1 (racemic) [compound 287, (±)-cis-5-cyclopropyl-N-{4-methyl-1-[(methyl-carbamoyl)methyl]pyrrolidin-3-yl}-1,2-oxazole-3-carboxamide]"
12,9.31,"CC(Cc1ccc2c(c1)OCO2)CN1C[C@H](C)[C@H](NC(=O)c2cc(C3CC3)on2)C1 (relative stereo) [compound 323, cis-N-{1-[2-(2H-1,3-benzodioxol-5-ylmethyl)propyl]-4-methylpyrrolidin-3-yl}-5-cyclopropyl-1,2-oxazole-3-carboxamide]"
13,> 50,"C[C@H]1CN(Cc2cnc3ncccn23)C[C@H]1NC(=O)c1cc(C2CC2)on1 (racemic) [compound 211, (±)-cis-5-cyclopropyl-N-[1-{imidazo[1,2-a]pyrimidin-3-ylmethyl}-4-methylpyrrolidin-3-yl]-1,2-oxazole-3-carboxamide]"
14,> 50,"C[C@@H]1CN(Cc2ccc(-c3cc(Cl)ccc3Cl)o2)C[C@H]1NC(=O)c1cc(C2CC2)on1 (racemic) [compound 171, (±)-trans-5-cyclopropyl-N-[1-{[5-(2,5-dichlorophenyl)furan-2-yl]methyl}-4-methylpyrrolidin-3-yl]-1,2-oxazole-3-carboxamide]"
15,4.08,"C[C@H]1CN(Cc2ccc(N(C)C)cc2)C[C@H]1NC(=O)c1cc(C2CC2)on1 (racemic) [compound 230, (±)-cis-5-cyclopropyl-N-[1-{[4-(dimethyl-amino)phenyl]methyl}-4-methylpyrrolidin-3-yl]-1,2-oxazole-3-carboxamide]"
16,41.6,"C[C@H]1CN(Cc2ccc3nonc3c2)C[C@H]1NC(=O)c1cc(C2CC2)on1 (racemic) [compound 222, (±)-cis-N-[1-(2,1,3-benzoxadiazol-5-ylmethyl)-4-methyl-pyrrolidin-3-yl]-5-cyclopropyl-1,2-oxazole-3-carboxamide]"
17,1.15,"C[C@@H]1CN(C2CC2)C[C@@H]1NC(=O)c1cc(C2CC2)on1 [compound 235, 5-cyclopropyl-N-[(3R,4R)-1-cyclopropyl-4-methyl-pyrrolidin-3-yl]-1,2-oxazole-3-carboxamide]"
18,> 50,"C[C@@H]1CN(CC2CCNC2)C[C@H]1NC(=O)c1cc(C2CC2)on1 (mixture of isomers) [compound 161, (±)-trans-5-cyclopropyl-N-[4-methyl-1-(pyrrolidin-3-ylmethyl)pyrrolidin-3-yl]-1,2-oxazole-3-carboxamide]"
19,> 50,"C[C@H]1CN(CC(N)=O)C[C@H]1NC(=O)c1cc(C2CC2)on1 (racemic) [compound 303, (±)-cis-N-[1-(carbamoyl-methyl)-4-methyl-pyrrolidin-3-yl]-5-cyclo-propyl-1,2-oxazole-3-carboxamide]"
20,> 50,"CC(C)N1C[C@H](NC(=O)c2cc(C3CC3)on2)[C@H](C(C)(C)C)C1 (racemic) [compound 258, (±)-cis-N-[4-tert-butyl-1-(propan-2-yl)pyrrolidin-3-yl]-5-cyclopropyl-1,2-oxazole-3-carboxamide]"

# Same assay, conditions: Table 1; average of n = 1 to n = 50; read-out: SMYD2 Biochem IC50
row,IC50 [µM],Compound
1,2.75,"C[C@@H]1CN(C2CC2)C[C@H]1NC(=O)c1cc(C2CC2)on1 (racemic) [Cpd. No. 46, (±)-trans-5-cyclopropyl-N-(1-cyclopropyl-4-methylpyrrolidin-3-yl)isoxazole-3-carboxamide]"
2,> 50,"O=C(N[C@@H]1CN(C2CC2)C[C@H]1O)c1cc(C2CC2)on1 (racemic) [compound 47, (±)-trans-5-cyclopropyl-N-(1-cyclopropyl-4-hydroxypyrrolidin-3-yl)isoxazole-3-carboxamide]"
3,36.1,"O=C(NC1CNCC1O)c1cc(C2CC2)on1 (stereo not shown) [compound 37, 5-cyclopropyl-N-(4-hydroxypyrrolidin-3-yl)isoxazole-3-carboxamide]"

# Same assay, conditions: Table 2; average of n = 1 to n = 50; read-out: SMYD2 Biochem IC50
row,IC50 [µM],Compound
1,40.7,"C[C@@H]1CN(C2CCOCC2)C[C@@H]1NC(=O)c1cc(C2CC2)on1 (racemic) [compound 73, (±)-cis-5-cyclopropyl-N-(4-methyl-1-(tetrahydro-2H-pyran-4-yl)pyrrolidin-3-yl)isoxazole-3-carboxamide]"
2,14,"C[C@@H]1CN(C2CCS(=O)(=O)CC2)C[C@@H]1NC(=O)c1cc(C2CC2)on1 (racemic) [compound 74, (±)-cis-5-cyclopropyl-N-(1-(1,1-dioxidotetrahydro-2H-thiopyran-4-yl)-4-methylpyrrolidin-3-yl)isoxazole-3-carboxamide]"
